Data: patent US10507209B2, “Quinazoline derivatives substituted by aniline, preparation method and use thereof” (XUANZHU PHARMA CO., LTD., priority 2010, dated 2019)
Structures can show the parent of a compound that is named as a salt. Where two headings read alike, the source gives them in different places. Marks after values point to notes of the source that are not given here.

Assays:
H1975 cells = experiment: In vitro cellular inhibitory activity on H1975 (XTT); type: cell-based; settings: Homo sapiens, NCI-H1975, 72 hours
Text: Table 2 in vitro cellular inhibitory activities on H1975 (NSCLC, nonsmall-cell lung cancer)

Calu-3 cells = experiment: In vitro cellular inhibitory activity on Calu-3 (XTT); type: cell-based; settings: Homo sapiens, 72 hours
Text: Table 3 in vitro cellular inhibitory activities on Calu-3 (NSCLC nonsmall-cell lung cancer)

5637 cells = experiment: In vitro cellular inhibitory activity on 5637 bladder carcinoma cells (CTG kit); type: cell-based; settings: Homo sapiens, 72 hours
Protocol: The effect of the compound to be tested on 5637 (bladder carcinoma) cell proliferation was tested using CTG kit.
535 μl DMSO was added into an EP tube filled with 3.32 mg of Compound 18 and evenly shaken (10 mM);
590 μl DMSO was added into an EP tube filled with 3.16 mg of Compound AZD9291 and evenly shaken (10 mM);
The compound was diluted with DMSO by 4-fold from 10 mM to 2.5 mM, 625 μM, 156 μM, 39 μM, 9.8 μM, 2.4 μM, 0.61 μM, 0.15 μM, 0.04 μM in turn.
Formulating a stock solution of a 10-fold compound: 2 μl 1000-fold Compound 18 or AZD9291 was respectively added into a 198 μl culture medium and evenly shaken.
1) Plating in the 384-well plate with 250 cells/well/22.5 ul;
2) After 24 hours, each well was added with 2.5 ul 10-fold drug which was well diluted to make the final concentration of 10 μM, 2.5 μM, 625 nM, 156 nM, 39 nM, 9.8 nM, 2.5 nM, 0.610 nM, 0.153 nM, 0.04 nM.
3) The plate was placed in the CO2 incubator and incubated at 37° C. for 72 hours
2) Each well was added with 25 ul CellTiter-Glo® agent, mixed for 2 minutes and placed at room temperature while being kept in darkness for 10 minutes.
3) Reading the […] using EnVision 2104 Multilabel Reader.

BT474 cells = experiment: In vitro cellular inhibitory activity on BT474 mammary cancer cells (XTT); type: cell-based; settings: Homo sapiens, BT-474, 72 hours
Protocol: BT474 cells (human breast ductal carcinoma cell, purchased from ATCC). […] The maximum concentration of the test compound was 10 μM, and there were 10 concentration gradients in total. For each compound, the operation was duplicated. […] 2) The plate was placed in the CO2 cell incubator and incubated at 37° C. for 72 hours. 2) The culture medium was removed; each well was added with 150 μl XTT working solution. […] 4) Slightly and evenly shaking before reading the absorbance.

NCI-N87 cell = experiment: In vitro cellular inhibitory activity on NCI-N87 gastric carcinoma cells (XTT); type: cell-based; settings: Homo sapiens, read-out: IC50 NCI-N87 cell
Protocol: For each compound, the above operation was triplicated. […] 2) The plate was placed in the CO2 incubator and incubated at 37° C. for 72 hours. 2) The culture medium was removed and each well was added with 150 μl XTT working solution. […] 4) Slightly and evenly shaking before reading the absorbance.

[1] = tested on: human-derived xenograft model HN2170; experiment: In vivo pharmacodynamic evaluation, head and neck cancer xenograft model HN2170; set-up: species or system BALB/c nude mice; settings: for Tumor Volume (Day 0): Day 0 (grouping, baseline); for T/C / TGI / Tumor Volume: 25 days after the administration
Protocol: HN2170, head and neck cancer from a patient.
They were administered totally 25 days.

[2] = tested on: human-derived LN-229 glioblastoma xenograft; experiment: In vivo pharmacodynamic evaluation, human-derived LN-229 glioblastoma xenograft; set-up: species or system BALB/c nude mice; settings: 28 days after the administration
[3] = tested on: SKOV-3 human-derived xenografts model in ovarian cancer; experiment: In vivo pharmacodynamic evaluation, SKOV-3 human-derived xenografts model in ovarian cancer; set-up: species or system BALB/c nude mice; settings: 14 days after the administration
Protocol: The tumor was then stripped under sterile conditions to remove the necrotic tissues and select the well developed tumor tissues which were inoculated subcutaneously into an animal again. In this way the tumor tissues were subjected to passage for twice in the body of the mice. […] The tumor blocks were inoculated subcutaneously to the right coastal region of the mice with an inoculation needle. […] The tumor size was measured twice a week with an […] caliper.

[4] = tested on: gallbladder carcinoma xenografts model GL6899; experiment: In vivo pharmacodynamic evaluation, gallbladder carcinoma xenografts model GL6899; set-up: species or system BALB/c nude mice
Protocol: GL6899, gallbladder carcinoma from a patient
Comparison between the two groups of data was tested by independent sample t test.

[5] = tested on: human-derived cholangiocarcinoma (10114) xenograft model; experiment: In vivo pharmacodynamic evaluation, human-derived cholangiocarcinoma (10114) xenograft model; set-up: species or system BALB/c nude mice
Protocol: 10114, cholangiocarcinoma from a patient.
Tumor tissues of human cholangiocarcinoma (10114) were cut into tumor blocks of volume of 3 mm×3 mm×3 mm which were inoculated subcutaneously in mice. The tumor volume was observed and measured. […] The efficacy was evaluated according to the tumor growth inhibition (TGI).
The experimental data were analyzed using statistical software SPSS 20.0. The data associated with the tumor volume was analyzed with T-test. **P<0.05 compared with the control group represents significant statistical difference.

[6] = tested on: KYSE270 human esophageal carcinoma model; settings: for Relative Tumor Volume / T/C / TGI / Tumor Volume: 21 days after the administration
A431 cells = experiment: In vitro cellular inhibitory activity on A431 (XTT); type: cell-based; settings: Homo sapiens, A-431, 72 h, read-out: IC50 A431 cells
[7] = 20 mg/kg p.o. once a day, 21 days
[8] = 20 mg/kg oral once a day, 21 days after the administration

SMILES: C=CC(=O)Nc1cc2c(Nc3ccc(F)c(Cl)c3)ncnc2cc1OCC1CC2(CCN(C)CC2)C1 [Compound 18, N-[4-(3-chloro-4-fluorophenylamino)-7-((7-methyl-7-azaspiro[3.5]nonan-2-yl)methoxy)quinazolin-6-yl]-acrylamide]
- IC50 (H1975 cells): 92.3 nM
- IC50 (Calu-3 cells): 38.2 nM
- IC50 (5637 cells): 38.6 nM
- IC50 (BT474 cells): 9.7 nM
- IC50 (NCI-N87 cell; NCI-N87, 72 hours, XTT): 7.1 nM
- Tumor Volume (Day 0) ([1]; 20 mg/kg group): 143.1 ± 22.9 mm^3
- T/C ([1]; 20 mg/kg oral once a day): 6.5%
- TGI ([1]; 20 mg/kg oral once a day): 93.5%
- Tumor Volume ([1]; 20 mg/kg oral once a day): 46.3 ± 10.6*** mm^3
- T/C ([2]; 10 mg/kg oral once a day): 45.6%
- TGI ([2]; 10 mg/kg oral once a day): 54.4%
- Tumor Volume ([2]; 10 mg/kg oral once a day): 260 ± 27 mm^3
- T/C ([2]; 20 mg/kg oral once a day): 34.0%
- TGI ([2]; 20 mg/kg oral once a day): 66.0%
- Tumor Volume ([2]; 20 mg/kg oral once a day): 191 ± 11 mm^3
- T/C ([3]; 10 mg/kg oral once a day): 49.1%
- TGI ([3]; 10 mg/kg oral once a day): 50.9%
- Tumor Volume ([3]; 10 mg/kg oral once a day): 798 ± 88 mm^3
- T/C ([3]; 20 mg/kg oral once a day): 32.1%
- TGI ([3]; 20 mg/kg oral once a day): 67.9%
- Tumor Volume ([3]; 20 mg/kg oral once a day): 540 ± 86 mm^3
- Tumor Volume on day 0 ([4]; 20 mg/kg group, day 0 (grouping, baseline)): 135.53 ± 9.60 mm^3
- T/C [4, 7]: 2.6%
- TGI [4, 7]: 97.4%
- Tumor Volume after adminstration of 21 days [4, 7]: 26.63 ± 2.37*** mm^3
- Tumor Volume On Day 0 ([5]; 20 mg/kg group, Day 0 (grouping, baseline)): 138.6 ± 8.9 mm^3
- Relative Tumor Volume [5, 8]: 77.13 ± 9.34%
- T/C [5, 8]: 18.1%
- TGI [5, 8]: 81.9%
- Tumor Volume [5, 8]: 107.53 ± 15.80*** mm^3
- Tolerability in mice with tumor ([6]; 10 mg/kg and 20 mg/kg): can tolerate the tested drugs well
- Relative Tumor Volume ([6]; 10 mg/kg oral once a day): 0.33 ± 0.05
- T/C ([6]; 10 mg/kg oral once a day): 2%
- TGI ([6]; 10 mg/kg oral once a day): 98%
- Tumor Volume ([6]; 10 mg/kg oral once a day): 40 ± 6 mm^3
- Relative Tumor Volume ([6]; 20 mg/kg oral once a day): 0.11 ± 0.02
- T/C ([6]; 20 mg/kg oral once a day): 1%
- TGI ([6]; 20 mg/kg oral once a day): 99%
- Tumor Volume ([6]; 20 mg/kg oral once a day): 14 ± 3 mm^3

SMILES: C=CC(=O)Nc1cc2c(Nc3ccc(F)c(Cl)c3)ncnc2cc1OCCCN1CCOCC1 [CI-1033 hydrochloride, reference compound]
- IC50 (H1975 cells): 157 nM
- IC50 (Calu-3 cells): 686 nM
- IC50 (A431 cells): 402 nM

SMILES: C=CC(=O)Nc1cc2c(Nc3ccc(F)c(Cl)c3)ncnc2cc1OCC[C@@H]1[C@H]2CN(C)C[C@@H]12 [Compound 8]
- IC50 (H1975 cells): 306 nM
- T/C ([2]; 30 mg/kg oral once a day): 21.3%
- TGI ([2]; 30 mg/kg oral once a day): 78.7%
- Tumor Volume ([2]; 30 mg/kg oral once a day): 121 ± 17 mm^3

SMILES: CS(=O)(=O)CCNCc1ccc(-c2ccc3ncnc(Nc4ccc(OCc5cccc(F)c5)c(Cl)c4)c3c2)o1 [Lapatinib ditosylate, lapatinib ditosylate, reference compound]
- IC50 (H1975 cells): 4530 nM
- IC50 (Calu-3 cells): 94.3 nM

SMILES: CS(=O)(=O)CCNCc1ccc(-c2ccc3ncnc(Nc4ccc(OCc5cccc(F)c5)c(Cl)c4)c3c2)o1 [Lapatinib, reference compound]
- IC50 (NCI-N87 cell; NCI-N87, 72 h): 11.9 nM
- T/C ([2]; 200 mg/kg oral once a day): 45.6%
- TGI ([2]; 200 mg/kg oral once a day): 54.4%
- Tumor Volume ([2]; 200 mg/kg oral once a day): 261 ± 42 mm^3
- T/C ([3]; 80 mg/kg oral once a day): 83.4%
- Tumor Volume ([3]; 80 mg/kg oral once a day): 1339 ± 167 mm^3

SMILES: C#Cc1cccc(Nc2ncnc3cc(OCCOC)c(OCCOC)cc23)c1 [Erlotinib hydrochloride, erlotinib hydrochloride, reference compound]
- IC50 (H1975 cells): 3980 nM
- IC50 (Calu-3 cells): 1320 nM

SMILES: C=CC(=O)Nc1cc2c(Nc3ccc(F)c(Cl)c3)ncnc2cc1OCCC1CC2(CCN(C)CC2)C1 [Compound 19 hydrochloride, N-[4-(3-chloro-4-fluorophenylamino)-7-(2-(7-methyl-7-azaspiro[3.5]nonan-2-yl)ethoxy)quinazolin-6-yl]-acrylamide hydrochloride]
- IC50 (H1975 cells): 104 nM

SMILES: CCOc1cc2ncc(C#N)c(Nc3ccc(OCc4ccccn4)c(Cl)c3)c2cc1NC(=O)/C=C/CN(C)C [Neratinib, reference compound]
- Tumor Volume (Day 0) ([1]; 80 mg/kg group): 142.4 ± 23.4 mm^3
- T/C ([1]; 80 mg/kg oral once a day): 7.2%
- TGI ([1]; 80 mg/kg oral once a day): 92.8%
- Tumor Volume ([1]; 80 mg/kg oral once a day): 53.7 ± 10.3*** mm^3
- T/C ([2]; 80 mg/kg oral once a day): 34.3%
- TGI ([2]; 80 mg/kg oral once a day): 65.7%
- Tumor Volume ([2]; 80 mg/kg oral once a day): 197 ± 20 mm^3
